Laboratory results: patent US11413241B2, “Method for preparing a composition with a low dissolved oxygen content, comprising acetaminophen, and optionally one or more NSAIDs, and a composition obtained thereof” (Hyloris Developments SA, priority 2017, dated 2022)
Values belong to the molecule of their own block, whether it stands above or below them.

Experiments:
[1] = Amount of acetaminophen at various points in time and different pH; assay type: physicochemical; conditions: pH range 6.3-7.3, various points in time
Description: The amount of acetaminophen was studied at varies points in time and for different pH's.

[2] = from literature; cited from earlier work
[3] = Dissolution/precipitation of sodium ibuprofen 2H2O alone in water at decreasing pH; assay type: physicochemical
[4] = Dissolution of sodium ibuprofen 2H2O in the acetaminophen-ibuprofen formulation at varying pH; assay type: physicochemical

degradation of acetaminophen [1]: minimal degradation
SMILES: CC(=O)Nc1ccc(O)cc1 [acetaminophen, N-(4-hydroxyphenyl)acetamide]
pH at which rate of degradation is minimal [2]: ~6

pH at which precipitation is observed ([3]; 3.85 mg/ml sodium ibuprofen 2H2O in water, pH gradually decreased): 5.75
precipitation ([3]; pH 6, stored 1 month at 25° C.): showed precipitation
precipitation ([3]; pH 6.2, stored 1 month at 25° C.): precipitation was absent
SMILES: CC(C)Cc1ccc(C(C)C(=O)O)cc1 (stereo not shown) [ibuprofen]

pH of composition ([3]; 3.85 mg/ml in water, before pH decrease): 8.80
Dissolved ([3]; alone in water, pH 3): No
Dissolved ([3]; alone in water, pH 4): No
Dissolved ([3]; alone in water, pH 5): No
Dissolved ([3]; alone in water, pH 5.5): No
Dissolved ([3]; alone in water, pH 5.8): Yes
Dissolved ([3]; alone in water, pH 6): Yes
Dissolved ([3]; alone in water, pH 6.2): Yes
Dissolved ([3]; alone in water, pH 6.4): Yes
Dissolved ([3]; alone in water, pH 6.6): Yes
Dissolved ([3]; alone in water, pH 6.8): Yes
Dissolved ([3]; alone in water, pH 7): Yes
Dissolved ([3]; alone in water, pH 7.5): Yes
Dissolved ([3]; in water after 1 month storage at 25° C., pH 5.8): No
Dissolved ([3]; in water after 1 month storage at 25° C., pH 6): No
Dissolved ([3]; in water after 1 month storage at 25° C., pH 6.2): Yes
Dissolved ([3]; in water after 1 month storage at 25° C., pH 6.4): Yes
Dissolved ([3]; in water after 1 month storage at 25° C., pH 6.6): Yes
Dissolved ([3]; in water after 1 month storage at 25° C., pH 6.8): Yes
Dissolved ([3]; in water after 1 month storage at 25° C., pH 7): Yes
Dissolved ([3]; in water after 1 month storage at 25° C., pH 7.5): Yes
Dissolved ([4]; in the formulation 3 mg/ml Acetaminophen 10 mg/ml Ibuprofen, pH 6.2): Yes
Dissolved ([4]; in the formulation 3 mg/ml Acetaminophen 10 mg/ml Ibuprofen, pH 6.3): Yes
Dissolved ([4]; in the formulation 3 mg/ml Acetaminophen 10 mg/ml Ibuprofen, pH 6.4): Yes
Dissolved ([4]; in the formulation 3 mg/ml Acetaminophen 10 mg/ml Ibuprofen, pH 6.6): Yes
Dissolved ([4]; in the formulation 3 mg/ml Acetaminophen 10 mg/ml Ibuprofen, pH 7): Yes
Dissolved ([4]; in the formulation Acetaminophen - Ibuprofen, 1 month, pH 6.2): No
Dissolved ([4]; in the formulation Acetaminophen - Ibuprofen, 1 month, pH 6.3): Yes
Dissolved ([4]; in the formulation Acetaminophen - Ibuprofen, 1 month, pH 6.4): Yes
Dissolved ([4]; in the formulation Acetaminophen - Ibuprofen, 1 month, pH 6.6): Yes
Dissolved ([4]; in the formulation Acetaminophen - Ibuprofen, 1 month, pH 7): Yes
Dissolved ([4]; in the formulation Acetaminophen - Ibuprofen, 6 months, 25° C., pH 6.3): Yes
Dissolved ([4]; in the formulation Acetaminophen - Ibuprofen, 6 months, 25° C., pH 6.4): Yes
Dissolved ([4]; in the formulation Acetaminophen - Ibuprofen, 6 months, 25° C., pH 6.6): Yes
Dissolved ([4]; in the formulation Acetaminophen - Ibuprofen, 6 months, 25° C., pH 7): Yes
SMILES: CC(C)Cc1ccc(C(C)C(=O)O)cc1 (stereo not shown) [sodium ibuprofen 2H2O]
